# In patent US20080292584A1 (priority 2005, published 2008):
# “And” between values parts separate entries of the source, which are not always exact repeats. Equal entries are not always repeated. Where two headings read alike, the source gives them in different places.
# Key:
# human CYP1A2 = target: T1, human CYP1A2 (Homo sapiens, UniProt P05177); assay: Metabolism of metaxalone by expressed recombinant human CYP1A2 (disappearance of metaxalone, HPLC; Example 1); conditions: 30 min;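 further: recombinant CYP1A2 microsomes (10 pmol P450) in Tris buffer containing 1% methanol, reactions driven by an NADPH regenerating system, 0.5 mL incubations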
# T1 sequence (P05177 2-516 limits assumed): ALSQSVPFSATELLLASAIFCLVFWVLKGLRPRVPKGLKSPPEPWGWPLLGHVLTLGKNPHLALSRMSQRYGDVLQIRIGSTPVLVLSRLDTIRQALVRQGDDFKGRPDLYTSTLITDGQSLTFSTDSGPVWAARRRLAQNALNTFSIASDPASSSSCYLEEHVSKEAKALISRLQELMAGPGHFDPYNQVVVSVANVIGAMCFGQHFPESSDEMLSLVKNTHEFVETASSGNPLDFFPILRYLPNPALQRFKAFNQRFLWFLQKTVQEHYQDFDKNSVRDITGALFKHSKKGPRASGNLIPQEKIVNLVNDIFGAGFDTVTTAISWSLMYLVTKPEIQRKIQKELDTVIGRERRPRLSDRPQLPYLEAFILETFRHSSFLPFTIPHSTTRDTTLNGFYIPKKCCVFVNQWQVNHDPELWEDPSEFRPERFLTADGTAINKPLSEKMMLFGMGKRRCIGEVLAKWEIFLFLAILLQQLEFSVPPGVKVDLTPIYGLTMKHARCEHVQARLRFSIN
# Protocol: (§6) Commercially available microsomes from baculovirus-infected insect cells containing singly-expressed recombinant wild-type (*1 allele) human CYP enzymes and cDNA-expressed human cytochrome p450 oxidoreductase [BD SUPERSOMES Enzymes; BD Biosciences Discovery Labware (Woburn, Mass.)] were used.
# (§7) After a 5-minute pre-incubation, an NADPH regenerating system (NRS) was added to the incubation mixtures to initiate reactions, with a final incubation volume of 0.5 mL. Incubations were continued for 30 minutes, and then terminated, except for those for CYP2C19, which were incubated for 36 minutes prior to termination.
# (§8) Matrix controls were performed to determine the background signal from the matrix components (microsomes (10 pmol p450), 01N Tris buffer, NRS, and 1% methanol). […] After a 5-minute pre-incubation, 2% sodium bicarbonate solution was added to the incubation mixtures. Incubation was for 30 minutes at a final volume of 0.5 mL. Matrix and metabolic negative controls were terminated by adding an equal volume of methanol. […] Analysis of samples was subsequent to storage at −70° C.
# CYP2C19 = CYP2C19 (Homo sapiens, UniProt P33261); conditions: for 4′-Hydroxymephenytoin formation Adjusted Individual / 4′-Hydroxymephenytoin formation Adjusted Mean ± SD: 4 h; for Percent of VC / Specific Activity Individual / Specific Activity Mean ± SD: 48 h
# CYP2C19, sequence (P33261 whole entry): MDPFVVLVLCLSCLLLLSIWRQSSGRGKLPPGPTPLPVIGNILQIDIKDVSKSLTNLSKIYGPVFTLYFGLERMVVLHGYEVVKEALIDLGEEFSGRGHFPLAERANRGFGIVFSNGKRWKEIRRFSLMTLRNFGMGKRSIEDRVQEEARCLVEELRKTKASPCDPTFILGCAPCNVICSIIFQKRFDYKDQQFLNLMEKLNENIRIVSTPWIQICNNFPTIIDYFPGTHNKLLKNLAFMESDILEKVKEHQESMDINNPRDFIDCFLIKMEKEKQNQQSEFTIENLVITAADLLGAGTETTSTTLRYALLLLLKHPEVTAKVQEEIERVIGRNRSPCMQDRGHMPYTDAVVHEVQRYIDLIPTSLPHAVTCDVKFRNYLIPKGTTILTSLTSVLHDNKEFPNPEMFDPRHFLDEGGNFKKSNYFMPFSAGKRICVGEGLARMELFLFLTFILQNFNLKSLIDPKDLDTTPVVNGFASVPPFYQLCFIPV
# From the text: (§1) Hepatocytes from three human donors were obtained from a cryopreserved hepatocyte bank (In Vitro Technologies, Inc., USA). After thawing, viable hepatocytes were transferred to collagen-coated 48-well plates for attachment in plating medium (DMEM stock (Dulbecco's modified Eagle's medium, supplemented with bovine serum albumin, fructose, N-(2-hydroxyethyl)piperazine-N′-(2-ethanesulfonate) (HEPES), and sodium bicarbonate), supplemented with antibiotics, bovine serum, hydrocortisone, insulin and minimum essential medium (MEM) nonessential amino acids). After attachment to the collagen matrix, plating medium was replaced with sandwich medium (plating medium supplemented with VITROGEN) and incubated until use.
# (§2) The supplemented KHB was replaced with 150 μL supplemented KHB containing the appropriate isoform-selective substrate and incubated for 4 hrs prior to termination by adding 150 μL ice-cold methanol, except for the CYP2C8 incubations which were terminated by adding 150 μL acetonitrile.
# (§3) All substrates were dissolved in acetonitrile.
# (§4) Replicate trials and controls were performed. […] Additionally, reference control samples were included to evaluate inducibility of CYP2B6, CYP2C9, and CYP2C19 in the test system.
# (§5) Mean specific activity values with associated p-values≦0.05 were deemed to be statistically significant.
# CYP2C9 = CYP2C9 (Homo sapiens, UniProt P11712); assay: Induction/inhibition of CYP2C9 activity in cryopreserved human hepatocytes (tolbutamide)
# CYP2C9, sequence (P11712 whole entry): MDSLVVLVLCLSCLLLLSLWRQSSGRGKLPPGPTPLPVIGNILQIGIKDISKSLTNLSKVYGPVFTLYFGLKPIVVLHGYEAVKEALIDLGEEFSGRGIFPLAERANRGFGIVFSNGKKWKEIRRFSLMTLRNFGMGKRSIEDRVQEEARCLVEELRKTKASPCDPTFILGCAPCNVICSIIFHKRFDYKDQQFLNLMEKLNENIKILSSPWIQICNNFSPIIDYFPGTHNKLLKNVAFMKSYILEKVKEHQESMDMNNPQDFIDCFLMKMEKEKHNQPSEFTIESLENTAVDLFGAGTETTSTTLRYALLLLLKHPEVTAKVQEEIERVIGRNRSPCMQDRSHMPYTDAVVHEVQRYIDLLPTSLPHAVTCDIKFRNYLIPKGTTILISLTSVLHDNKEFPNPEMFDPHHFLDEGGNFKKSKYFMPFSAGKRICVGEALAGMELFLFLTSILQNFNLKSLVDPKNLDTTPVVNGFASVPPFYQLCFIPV
# From the text: as §1, §2, §3, §4, §5
# CYP2E1 [1] = target: T2, CYP2E1 (Homo sapiens, UniProt P05181); assay: Inhibition of CYP2E1 activity in pooled human liver microsomes (chlorzoxazone 50 μM to 6-hydroxy chlorzoxazone); format: in vitro ADME; set-up: host or cells: cryopreserved primary human hepatocytes from three donors
# T2 sequence (P05181 whole entry): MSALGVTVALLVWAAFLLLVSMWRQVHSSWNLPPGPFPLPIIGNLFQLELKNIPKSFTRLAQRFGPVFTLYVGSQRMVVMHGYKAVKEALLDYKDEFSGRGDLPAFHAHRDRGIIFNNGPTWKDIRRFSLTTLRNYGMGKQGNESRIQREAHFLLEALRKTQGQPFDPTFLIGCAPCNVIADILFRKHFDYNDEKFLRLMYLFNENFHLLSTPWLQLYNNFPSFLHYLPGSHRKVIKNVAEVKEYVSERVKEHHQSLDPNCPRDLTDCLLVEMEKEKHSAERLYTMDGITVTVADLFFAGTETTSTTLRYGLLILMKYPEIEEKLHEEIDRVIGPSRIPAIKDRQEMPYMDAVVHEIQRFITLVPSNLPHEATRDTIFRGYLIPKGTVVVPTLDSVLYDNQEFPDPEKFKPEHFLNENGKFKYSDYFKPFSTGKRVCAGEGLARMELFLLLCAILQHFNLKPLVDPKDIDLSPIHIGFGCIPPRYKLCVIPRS
# Protocol: All other incubations were for 30 minutes.
# Four replicates were performed.
# Two replicates were performed.
# CYP2E1 [2] = target: T2, CYP2E1; assay: Metabolism of metaxalone by expressed recombinant human CYP2E1 (Example 1); conditions: 30 min
# Protocol: as §6, §7, §8
compound,measurement,setting,value
"Cc1cc(C)cc(OCC2CNC(=O)O2)c1 (stereo not shown) [metaxalone, 5-[(3,5-dimethylphenoxy)methyl]-2-oxazolidinone]",Metaxalone Present Adjusted Individual,human CYP1A2; metaxalone 0.5 μM,0.302 µM and 0.440 µM and 0.315 µM
same,Metaxalone Present Adjusted Mean ± SD,human CYP1A2; metaxalone 0.5 μM,0.352 ± 0.0761 µM
same,Metaxalone Present Raw,human CYP1A2; metaxalone 0.5 μM,0.1509 µM and 0.2198 µM and 0.1573 µM
same,Percent of Metabolic Negative Control Individual,human CYP1A2; metaxalone 0.5 μM,77.1% and 112% and 80.4%
same,Percent of Metabolic Negative Control Mean ± SD,human CYP1A2; metaxalone 0.5 μM,89.9 ± 19.4%
same,Metaxalone Present Adjusted Individual,human CYP1A2; metaxalone 2.5 μM,1.05 µM and 1.06 µM and 1.08 µM
same,Metaxalone Present Adjusted Mean ± SD,human CYP1A2; metaxalone 2.5 μM,1.07 ± 0.0167 µM
same,Metaxalone Present Raw,human CYP1A2; metaxalone 2.5 μM,0.527 µM and 0.5291 µM and 0.5423 µM
same,Percent of Metabolic Negative Control Individual,human CYP1A2; metaxalone 2.5 μM,79.5% and 79.8% and 81.8%
same,Percent of Metabolic Negative Control Mean ± SD,human CYP1A2; metaxalone 2.5 μM,80.4 ± 1.26%
same,Metaxalone Present Adjusted Individual,human CYP1A2; metaxalone 25 μM,16.4 μM (2×) and 17.0 μM
same,Metaxalone Present Adjusted Mean ± SD,human CYP1A2; metaxalone 25 μM,16.6 ± 0.337 µM
same,Metaxalone Present Raw,human CYP1A2; metaxalone 25 μM,8.205 µM and 8.192 µM and 8.49 µM
same,Percent of Metabolic Negative Control Individual,human CYP1A2; metaxalone 25 μM,82.8% and 82.6% and 85.6%
same,Percent of Metabolic Negative Control Mean ± SD,human CYP1A2; metaxalone 25 μM,83.7 ± 1.70%
same,Inducer/Inhibitor,CYP2C19,0
same,4′-Hydroxymephenytoin formation Adjusted Individual,CYP2C19; 0.4 µM,<0.0500 µM
same,4′-Hydroxymephenytoin formation Adjusted Mean ± SD,CYP2C19; 0.4 µM,<0.0500 ± 0.000 µM
same,4′-Hydroxymephenytoin formation Adjusted Individual,CYP2C19; 0.4 μM,<0.0500 µM
same,4′-Hydroxymephenytoin formation Adjusted Mean ± SD,CYP2C19; 0.4 μM,<0.0500 ± 0.000 µM
same,4′-Hydroxymephenytoin formation Adjusted Individual,CYP2C19; 4 µM,<0.0500 µM
same,4′-Hydroxymephenytoin formation Adjusted Mean ± SD,CYP2C19; 4 µM,<0.0500 ± 0.000 µM
same,4′-Hydroxymephenytoin formation Adjusted Individual,CYP2C19; 4 μM,<0.0500 µM
same,4′-Hydroxymephenytoin formation Adjusted Mean ± SD,CYP2C19; 4 μM,<0.0500 ± 0.000 µM
same,4′-Hydroxymephenytoin formation Adjusted Individual,CYP2C19; 40 µM,<0.0500 µM
same,4′-Hydroxymephenytoin formation Adjusted Mean ± SD,CYP2C19; 40 µM,<0.0500 ± 0.000 µM
same,4′-Hydroxymephenytoin formation Adjusted Individual,CYP2C19; 40 μM,<0.0500 µM
same,4′-Hydroxymephenytoin formation Adjusted Mean ± SD,CYP2C19; 40 μM,<0.0500 ± 0.000 µM
same,Percent of VC,CYP2C19; 0.4 µM,100%
same,Specific Activity Individual,CYP2C19; 0.4 µM,<0.446 pmol/min/million cells
same,Specific Activity Mean ± SD,CYP2C19; 0.4 µM,<0.446 ± 0.000 pmol/min/million cells
same,Percent of VC,CYP2C19; 0.4 μM,100%
same,Specific Activity Individual,CYP2C19; 0.4 μM,<0.446 pmol/min/million cells
same,Specific Activity Mean ± SD,CYP2C19; 0.4 μM,<0.446 ± 0.000 pmol/min/million cells
same,Percent of VC,CYP2C19; 4 µM,100%
same,Specific Activity Individual,CYP2C19; 4 µM,<0.446 pmol/min/million cells
same,Specific Activity Mean ± SD,CYP2C19; 4 µM,<0.446 ± 0.000 pmol/min/million cells
same,Percent of VC,CYP2C19; 4 μM,100%
same,Specific Activity Individual,CYP2C19; 4 μM,<0.446 pmol/min/million cells
same,Specific Activity Mean ± SD,CYP2C19; 4 μM,<0.446 ± 0.000 pmol/min/million cells
same,Percent of VC,CYP2C19; 40 µM,100%
same,Specific Activity Individual,CYP2C19; 40 µM,<0.446 pmol/min/million cells
same,Specific Activity Mean ± SD,CYP2C19; 40 µM,<0.446 ± 0.000 pmol/min/million cells
same,Percent of VC,CYP2C19; 40 μM,100%
same,Specific Activity Individual,CYP2C19; 40 μM,<0.446 pmol/min/million cells
same,Specific Activity Mean ± SD,CYP2C19; 40 μM,<0.446 ± 0.000 pmol/min/million cells
same,Inducer/Inhibitor,CYP2C9,−
same,Percent of VC,"CYP2C9; Donor 1, Metaxalone 0.4 μM",108%
same,Percent of VC,"CYP2C9; Donor 1, Metaxalone 4 μM",100%
same,Percent of VC,"CYP2C9; Donor 1, Metaxalone 40 μM",<73.2%
same,Percent of VC,"CYP2C9; Donor 2, Metaxalone 4 μM",92.9%
same,Percent of VC,"CYP2C9; Donor 2, Metaxalone 40 μM",60.4%
same,Percent of VC,"CYP2C9; Donor 3, Metaxalone 0.4 μM",111%
same,Percent of VC,"CYP2C9; Donor 3, Metaxalone 40 μM",78.4%
same,Specific Activity Mean ± SD,"CYP2C9; Donor 3, Metaxalone 40 μM",0.127 ± 0.005 pmol/min/million cells
same,Specific Activity Mean ± SD,"CYP2C9; human, 48 h, 0.4 µM",0.179 ± 0.0111 pmol/min/million cells
same,Specific Activity Mean ± SD,"CYP2C9; human, 48 h, 4 µM",0.167 ± 0.0210 pmol/min/million cells
same,effect on CYP2C9 activity,"CYP2C9; human, hepatocytes, 48 h, 40 μM",significantly reduced CYP2C9 activity
same,inhibition of CYP activity at a statistically significant level,"CYP2E1 [1]; 0.3-100 μM metaxalone, p≦0.05",inhibited
same,Inhibitor,"CYP2E1 [1]; CYP isozyme 2E1, summary of studies",+
same,"inhibition at 30 min, 100 μM","CYP2E1 [1]; human, pooled human liver microsomes, probe chlorzoxazone 50 μM (to 6-hydroxy chlorzoxazone)",12.8%
same,Percent of VC,CYP2E1 [1]; metaxalone 0.3 μM,83.3%
same,Specific Activity Individual,CYP2E1 [1]; metaxalone 0.3 μM,196 pmol/min/mg protein and 187 pmol/min/mg protein and 185 pmol/min/mg protein
same,Specific Activity Mean ± SD,CYP2E1 [1]; metaxalone 0.3 μM,189 ± 6.08 pmol/min/mg protein
same,Percent of VC,CYP2E1 [1]; metaxalone 1 μM,84.0%
same,Specific Activity Individual,CYP2E1 [1]; metaxalone 1 μM,194 pmol/min/mg protein (2×) and 185 pmol/min/mg protein
same,Specific Activity Mean ± SD,CYP2E1 [1]; metaxalone 1 μM,191 ± 5.18 pmol/min/mg protein
same,Percent of VC,CYP2E1 [1]; metaxalone 3 μM,88.6%
same,Specific Activity Individual,CYP2E1 [1]; metaxalone 3 μM,203 pmol/min/mg protein (2×) and 198 pmol/min/mg protein
same,Specific Activity Mean ± SD,CYP2E1 [1]; metaxalone 3 μM,201 ± 2.94 pmol/min/mg protein
same,Percent of VC,CYP2E1 [1]; metaxalone 30 μM,86.1%
same,Specific Activity Individual,CYP2E1 [1]; metaxalone 30 μM,191 pmol/min/mg protein and 199 pmol/min/mg protein and 197 pmol/min/mg protein
same,Specific Activity Mean ± SD,CYP2E1 [1]; metaxalone 30 μM,196 ± 3.88 pmol/min/mg protein
same,Percent of VC,CYP2E1 [1]; metaxalone 100 μM,87.2%
same,Specific Activity Individual,CYP2E1 [1]; metaxalone 100 μM,200 pmol/min/mg protein and 202 pmol/min/mg protein and 193 pmol/min/mg protein
same,Specific Activity Mean ± SD,CYP2E1 [1]; metaxalone 100 μM,198 ± 4.66 pmol/min/mg protein
same,Metaxalone Present Adjusted Individual,CYP2E1 [2]; metaxalone 0.5 μM,0.357 µM and 0.345 µM and 0.353 µM
same,Metaxalone Present Adjusted Mean ± SD,CYP2E1 [2]; metaxalone 0.5 μM,0.352 ± 0.00648 µM
same,Metaxalone Present Raw,CYP2E1 [2]; metaxalone 0.5 μM,0.1787 µM and 0.1724 µM and 0.1766 µM
same,Percent of Metabolic Negative Control Individual,CYP2E1 [2]; metaxalone 0.5 μM,101% and 97.0% and 99.4%
same,Percent of Metabolic Negative Control Mean ± SD,CYP2E1 [2]; metaxalone 0.5 μM,99.0 ± 1.83%
same,Metaxalone Present Adjusted Individual,CYP2E1 [2]; metaxalone 2.5 μM,1.77 μM and 1.76 μM (2×)
same,Metaxalone Present Adjusted Mean ± SD,CYP2E1 [2]; metaxalone 2.5 μM,1.76 ± 0.00318 µM
same,Metaxalone Present Raw,CYP2E1 [2]; metaxalone 2.5 μM,0.883 µM and 0.8799 µM and 0.8821 µM
same,Percent of Metabolic Negative Control Individual,CYP2E1 [2]; metaxalone 2.5 μM,104%
same,Percent of Metabolic Negative Control Mean ± SD,CYP2E1 [2]; metaxalone 2.5 μM,104 ± 0.188%
same,Metaxalone Present Adjusted Individual,CYP2E1 [2]; metaxalone 25 μM,17.5 µM and 22.3 µM and 17.8 µM
same,Metaxalone Present Adjusted Mean ± SD,CYP2E1 [2]; metaxalone 25 μM,19.2 ± 2.71 µM
same,Metaxalone Present Raw,CYP2E1 [2]; metaxalone 25 μM,8.732 µM and 11.15 µM and 8.879 µM
same,Percent of Metabolic Negative Control Individual,CYP2E1 [2]; metaxalone 25 μM,98.2% and 125% and 99.9%
same,Percent of Metabolic Negative Control Mean ± SD,CYP2E1 [2]; metaxalone 25 μM,108 ± 15.3%
